“And” between values parts separate entries of the source, which are not always exact repeats. Equal values may be shown once.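 48-hour exposure; five concentrations; linearly interpolated endpoints. The concentration for 50% growth inhibition is given as GI50. The concentration for full growth arrest is given as TGI.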
Columns and labels:
Assay in all cases: inhibition of tumour cell growth, NCI panel, 48 h
A549 NSCLC = test system: A549 NSCLC
CAKI-1 renal = test system: CAKI-1 renal
CCRF-CEM leukemia = test system: CCRF-CEM leukemia
HS 578T breast = test system: HS 578T breast
HT29 colon = test system: HT29 colon
SF-268 CNS = test system: SF-268 CNS
SK-MEL-28 melanoma = test system: SK-MEL-28 melanoma
UACC-62 melanoma = test system: UACC-62 melanoma

Row | Compound | GI50 (A549 NSCLC) | TGI (A549 NSCLC) | GI50 (CAKI-1 renal) [µM] | TGI (CAKI-1 renal) [µM] | GI50 (CCRF-CEM leukemia) [µM] | TGI (CCRF-CEM leukemia) [µM] | GI50 (HS 578T breast) | TGI (HS 578T breast) | GI50 (HT29 colon) | TGI (HT29 colon) | GI50 (SF-268 CNS) | TGI (SF-268 CNS) | GI50 (SK-MEL-28 melanoma) | TGI (SK-MEL-28 melanoma) | GI50 (UACC-62 melanoma) | TGI (UACC-62 melanoma)
1 | O=C1OCC2=C1C(c1ccc(Cl)c(Cl)c1)c1cc3c(cc1N2CCO)OCCO3 (stereo not given) | 0.299 µM | 11.8 µM | 0.277 | > 35.5 | 0.184 | 16.7 | 0.273 µM | > 37.6 µM | 0.148 µM | 0.502 µM | 0.261 µM | 11.6 µM | 0.412 µM | > 38.6 µM | 0.192 µM | 10.8 µM
2 | O=C1NC(=O)C(N2C(=O)c3ccccc3C2=O)CC1O (stereo not given) | > 100 µM | > 100 µM | > 100 | > 100 | > 100 | > 100 | > 100 µM | > 100 µM | > 100 µM | > 100 µM | > 100 µM | > 100 µM | > 100 µM | > 100 µM | > 100 µM | > 100 µM
3 | O=C(/C=C/c1cc2ccccc2[nH]c1=O)/C=C/c1cc2ccccc2[nH]c1=O |  | > 59.2 µM | 15.2 | > 100 | 7.97 | > 100 | > 39.9 µM | > 100 µM |  |  | 18 µM | 99.7 µM | 14.8 µM | > 66.5 µM | 16.9 µM | 97.8 µM
4 | O=C(NN1C(=O)CSC12CCCCC2)c1[nH]c2ccc(Br)cc2c1-c1ccccc1 | 15 µM | 30.5 µM | 25.5 | 80 | 19.6 | 52.8 | 23.1 µM | 66.1 µM | 13.9 µM | 31.5 µM | 20.3 µM | 67.1 µM | 24.8 µM | 69 µM | 10.9 µM | 39.8 µM
5 | COc1cc2c(cc1OCCCn1c(-c3ccccn3)nc3ccccc31)N=C[C@@H]1CCCN1C2=O | 1.87 µM | 7.08 µM | 2.16 | 5.6 | 15.7 | > 25 |  |  | 3.61 µM | > 79.6 µM | 3.07 µM | 9.79 µM | 5.01 µM | 11.6 µM | 1.48 µM | 3.04 µM
6 | C=CC(=O)Nc1cccc(Oc2nc(Nc3ccc(N4CCN(C)CC4)cc3)nc3ccsc23)c1 | 3.47 µM and 3.71 µM | > 10 µM and 17.6 µM | 1.99 | > 10 | 2.6 | 9.88 | 6.16 µM and 4.88 µM | > 10 µM and 41.3 µM | 1.91 µM and 2.72 µM | 4.05 µM and 5.81 µM | 3.48 µM and 2.73 µM | > 10 µM and 12.9 µM | 1.87 µM and 1.89 µM | 3.49 µM and 3.71 µM | 1.59 µM and 1.74 µM | 3.17 µM and 3.67 µM
7 | CC(=O)/C=C/c1cn(C(=O)OC(C)(C)C)c2ccc(Br)cc12 | 18.8 µM | 52.4 µM | 22.1 | 42.5 | 1.07 | > 100 | 26.8 µM | 65.4 µM | 10.6 µM | 24.8 µM | 24.1 µM | 97.9 µM | 25.9 µM | > 68.1 µM | 20.6 µM | > 85.7 µM
8 | COc1cc2nc(N3CCCC3)nc(NCCc3ccccc3)c2cc1OC |  |  | 1.66 | 3.19 | 1.44 | 10.6 |  |  | 1.81 µM | 4.19 µM | 1.97 µM | 3.95 µM | 1.66 µM | 3.03 µM | 1.65 µM | 3.06 µM
9 | O=C(O)c1ccc(C(=O)c2ccccc2)c(C(=O)O)c1 |  | > 100 µM |  | > 100 |  | > 100 |  | > 100 µM |  | > 100 µM |  | > 100 µM |  | > 100 µM |  | > 100 µM
10 | C1CCC([PH+](C2CCCCC2)C2CCCCC2[PH+](C2CCCCC2)C2CCCCC2)CC1.[Au].[CH-]1CCCCC1CC1CCCC[N-]1 (stereo not given) | 0.241 µM | 3.03 µM | 0.791 | 2.29 |  |  | 0.276 µM | 1.69 µM | 0.342 µM | 1.98 µM | 0.405 µM | 2.11 µM | 0.433 µM | 1.94 µM | 0.249 µM | 
11 | FC(F)(F)c1ccc(-c2cnc(-c3ncon3)nc2NC2CCCCCC2)cc1 | 38 µM | > 100 µM | 67.9 | > 100 | 22.9 | 60.4 | 32.1 µM | > 100 µM | 34.7 µM | > 100 µM | 64 µM | > 100 µM | 99.2 µM | > 100 µM | 48.6 µM | > 100 µM
12 | N#CC1(C(N)=O)C(c2ccc(Cl)cc2)CC(=O)CC1c1ccc(Cl)cc1 (stereo not given) | 18.1 µM | 39.8 µM | 20.4 | 55.9 | 21.5 | 63.5 | 23.3 µM | 61.6 µM | 15.5 µM | 29.5 µM | 18.5 µM | 34.3 µM | 16.6 µM | 30.6 µM | 13.6 µM | 27.2 µM
13 | COc1cc2c3c(n(C)c(=O)c2cc1OC)-c1cc2c(cc1/C3=C\CCCCN1C(=O)c3ccccc3C1=O)OCO2 | 7.03 µM | 27.9 µM | 0.686 | 35.4 | 9.71 | 43.7 | 26.5 µM | > 100 µM | 18 µM | > 100 µM | 9.12 µM | > 100 µM | > 100 µM | > 100 µM | 6.01 µM | 37.6 µM
14 | CCCCCCCCCCCCCCCCCC[n+]1ccc2c(C)c3c(c(C)c2c1)c1cc(O)ccc1n3CC | 1.28 µM | 5.47 µM | 11.5 | 28.7 | 3.27 | 34.2 | 2.23 µM | 7.79 µM | 1.14 µM | 15.2 µM | 1.95 µM | 5.11 µM | 1.91 µM | 4.98 µM | 1.29 µM | 3.38 µM
15 | O=[N+]([O-])c1ccc(C=Cc2ccccc2)cc1.[C-]#[O+].[C-]#[O+].[C-]#[O+].[Cr] | 8.69 µM | > 100 µM | 11.9 | > 100 | 2.72 | > 100 | 62.9 µM | > 100 µM | 29.5 µM | > 100 µM | 32 µM | > 100 µM | > 100 µM | > 100 µM | 3.01 µM | 46.9 µM
